Test results reported in PubChem BioAssay (NCI).
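Five compound concentrations were applied to cells in 96-well plates for 48 hours; endpoints were derived by simple linear interpolation of the resulting dose-response curve. At the GI50, growth is halved. TGI is the concentration that stops growth completely.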

Assays:
Experiment in all cases: DTP human tumour cell line panel, 48 h
[1] = tested on: RPMI-8226 leukemia
[2] = tested on: KM12 colon
[3] = tested on: 786-0 renal
[4] = tested on: EKVX NSCLC
[5] = tested on: OVCAR-3 ovarian
[6] = tested on: BT-549 breast
[7] = tested on: MCF7 breast
[8] = tested on: SK-MEL-2 melanoma
[9] = tested on: SK-MEL-5 melanoma
[10] = tested on: CAKI-1 renal
[11] = tested on: SR leukemia
[12] = tested on: HOP-92 NSCLC
[13] = tested on: A498 renal
[14] = tested on: MOLT-4 leukemia
[15] = tested on: UACC-257 melanoma
[16] = tested on: SK-MEL-28 melanoma
[17] = tested on: A549 NSCLC
[18] = tested on: UACC-62 melanoma
[19] = tested on: IGROV1 ovarian
[20] = tested on: TK-10 renal
[21] = tested on: MALME-3M melanoma
[22] = tested on: MDA-MB-468 breast
[23] = tested on: NCI/ADR-RES ovarian
[24] = tested on: PC-3 prostate
[25] = tested on: OVCAR-8 ovarian
[26] = tested on: NCI-H226 lung
[27] = tested on: SW-620 colon
[28] = tested on: CCRF-CEM leukemia
[29] = tested on: SF-295 CNS
[30] = tested on: HS 578T breast
[31] = tested on: U251 CNS
[32] = tested on: SNB-19 CNS
[33] = tested on: SNB-75 CNS
[34] = tested on: HL-60(TB) leukemia
[35] = tested on: HOP-62 NSCLC
[36] = tested on: OVCAR-5 ovarian
[37] = tested on: M14 melanoma
[38] = tested on: NCI-H23 lung
[39] = tested on: ACHN renal
[40] = tested on: SN12C renal
[41] = tested on: UO-31 renal
[42] = tested on: SF-539 CNS
[43] = tested on: COLO 205 colon
[44] = tested on: MDA-MB-231 breast
[45] = tested on: HCC-2998 colon
[46] = tested on: LOX IMVI melanoma
[47] = tested on: SF-268 CNS
[48] = tested on: HCT-15 colon
[49] = tested on: RXF 393 renal
[50] = tested on: SK-OV-3 ovarian
[51] = tested on: DU-145 prostate
[52] = tested on: T-47D breast
[53] = tested on: K-562 leukemia
[54] = tested on: HT29 colon
[55] = tested on: MDA-MB-435
[56] = tested on: NCI-H522 lung
[57] = tested on: OVCAR-4 ovarian
[58] = tested on: HCT-116 colon
[59] = tested on: NCI-H460 lung

Q: Which results are given for `CC1(C)CC[C@]2(C(=O)O)CC[C@]3(C)C(=CCC4[C@@]5(C)C[C@@H](O)[C@@H]6OC(c7ccc(F)cc7)OC[C@@]6(C)C5CC[C@]43C)C2C1` (stereo partly drawn)?
A: GI50 [1]: 4.35 µM; TGI [1]: > 100 µM; GI50 [2]: 4.2 µM; TGI [2]: 18.9 µM; GI50 [3]: 7.56 µM; TGI [3]: 27.5 µM; GI50 [4]: 3.14 µM; TGI [4]: 15.3 µM; GI50 [5]: 4.13 µM; TGI [5]: 18.8 µM; GI50 [6]: 4.34 µM; TGI [6]: 17.9 µM; GI50 [7]: 4.03 µM; TGI [7]: 28.2 µM; GI50 [8]: 9.47 µM; TGI [8]: 24.2 µM; GI50 [9]: 4.13 µM; TGI [9]: 16.2 µM; GI50 [10]: 9.28 µM; TGI [10]: 26.3 µM; GI50 [11]: 4.18 µM; TGI [11]: 37 µM; GI50 [12]: 5.32 µM; TGI [12]: 27.6 µM; GI50 [13]: 5.41 µM; TGI [13]: 20.1 µM; GI50 [14]: 2.64 µM; TGI [14]: 12 µM; GI50 [15]: 10.9 µM; TGI [15]: 31 µM; GI50 [16]: 12.5 µM; TGI [16]: 25.4 µM; GI50 [17]: 2.81 µM; TGI [17]: 16.5 µM; GI50 [18]: 11.4 µM; TGI [18]: 24.3 µM; GI50 [19]: 7.62 µM; TGI [19]: 24.9 µM; GI50 [20]: 10.1 µM; TGI [20]: > 100 µM; GI50 [21]: 8.39 µM; TGI [21]: 22.9 µM; GI50 [22]: 3.26 µM; TGI [22]: 19.5 µM; GI50 [23]: 4.3 µM; TGI [23]: 22.8 µM; GI50 [24]: 4.18 µM; TGI [24]: > 100 µM; GI50 [25]: 6.96 µM; TGI [25]: 40.2 µM; GI50 [26]: 3.96 µM; TGI [26]: 23.5 µM; GI50 [27]: 6.54 µM; TGI [27]: 30.3 µM; GI50 [28]: 3.58 µM; TGI [28]: 25.8 µM; GI50 [29]: 3.57 µM; TGI [29]: 15.9 µM; GI50 [30]: 5.56 µM; TGI [30]: 48.5 µM; GI50 [31]: 3.54 µM; TGI [31]: 17 µM; GI50 [32]: 7.35 µM; TGI [32]: > 100 µM; GI50 [33]: 2.05 µM; TGI [33]: 45.3 µM; GI50 [34]: 2.29 µM; TGI [34]: 6.41 µM; GI50 [35]: 6.68 µM; TGI [35]: 29.6 µM; GI50 [36]: 13.3 µM; TGI [36]: 33.5 µM; GI50 [37]: 10.7 µM; TGI [37]: 27 µM; GI50 [38]: 4.95 µM; TGI [38]: 21.1 µM; GI50 [39]: 3.56 µM; TGI [39]: 32.5 µM; GI50 [40]: 7.55 µM; TGI [40]: 30.2 µM; GI50 [41]: 4.17 µM; TGI [41]: 21.7 µM; GI50 [42]: 6.71 µM; TGI [42]: 21.3 µM; GI50 [43]: 4.53 µM; TGI [43]: 17.9 µM; GI50 [44]: 13 µM; TGI [44]: 28.7 µM; GI50 [45]: 4.34 µM; TGI [45]: 14.8 µM; GI50 [46]: 4.13 µM; TGI [46]: 16.2 µM; GI50 [47]: 5.3 µM; TGI [47]: > 100 µM; GI50 [48]: 2.42 µM; TGI [48]: 11.6 µM; GI50 [49]: 6.66 µM; TGI [49]: 20.5 µM; GI50 [50]: 11.6 µM; TGI [50]: 39.2 µM; GI50 [51]: 5.23 µM; TGI [51]: > 100 µM; GI50 [52]: 11.8 µM; TGI [52]: 95.9 µM; GI50 [53]: 2.26 µM; TGI [53]: > 100 µM; GI50 [54]: 5.09 µM; TGI [54]: 30.3 µM; GI50 [55]: 10.8 µM; TGI [55]: 23.7 µM; GI50 [56]: 5.21 µM; TGI [56]: 23.8 µM; GI50 [57]: 5.63 µM; TGI [57]: 38.4 µM; GI50 [58]: 3.5 µM; TGI [58]: 13.7 µM; GI50 [59]: 4.38 µM; TGI [59]: 18.1 µM
